This is an account of results in US8470845B2, “Analgesic and methods of treating pain” (Toray Industries, Inc., priority 2004, dated 2013).

Assay [1] has as its system male ddY mouse. Put plainly: Analgesic activity test by mouse acetic acid writhing method. In kind it is in vivo. The note with it: subcutaneous, 15 minutes before i.p. 0.6% acetic acid; dosage to halve the number of writhing response. The protocol:
To each male ddY mouse, each test compound or the vehicle was subcutaneously administered in an administration volume of 0.1 mL/10 g body weight. Fifteen minutes later, 0.1 mL/10 g body weight of aqueous 0.6% (v/v) acetic acid solution was intraperitoneally administered. From 10 minutes after the administration of the acetic acid solution, the number of writhing response (i.e., the behavior to bend the body backward and/or twist the body) during 10 minutes was counted, and the analgesic activity was evaluated based on the number of writhing response. […] 10% Aqueous dimethylsulfoxide (DMSO) was used as a vehicle for test compounds 1, 2, 3, 4, 5, 6, 7, 8, 9, 10, 11, 12, 13, 14, 15, 16, 17, 18, 19, 20, 21 and 22. 0.1% Citric acid/aqueous 5% xylitol was used as a vehicle for test compounds 10f.

In assay [2] the test system is female Sprague-Dayley rats. Put plainly: Activity to relieve cystalgia caused by hyperextension of bladder, myoelectric activity of external oblique abdominal muscle as index. Format: in vivo, rat. The following applies: iv; for Rate of Inhibition of Myoelectric Activity (Number of Spikes) of External Oblique Abdominal Muscle (vs. before administration, %): anesthetized rats, mean ± standard error. How it is done: The activity of Compound 10f to relieve cystalgia was evaluated using the myoelectric activity of external oblique abdominal muscle in hyperextension of bladder of anesthetized rats as an index of the cystalgia. In the experiments, 14 to 15-week old female Sprague-Dayley rats (CLEA Japan, Inc.) weighing 300 to 360 g were used.
Under halothane (2.5-4%) anesthesia, a polyethylene catheter (PE-50) for cystometry was inserted into the bladder transurethrally. Further, a polyethylene catheter (PE-100) for filling physiological saline was inserted into the bladder from the apex of bladder dome. […] A catheter for drug administration was indwelled in the femoral vein. The skin in the lateral ventral part was incised and a bipolar electrode for electromyographic measurement was inserted into the external oblique abdominal muscle and indwelled therein. A reservoir preliminarily filled with physiological saline was connected to the catheter indwelled in the bladder and held at a prescribed height to extend the bladder. The extension stimulus was continued for 20 seconds. In cases where the stimulation is repeatedly given, the interval between stimulation was 3 minutes. A bipolar electrode (needle electrode for electroencephalography, NIHON KOHDEN) was connected to an electromyograph amplifier (EMG100C, Biopac Systems), and a high cut filter (5 kHz) and low cut filter (100 Hz) were applied. Thereafter, the signals were taken into an AD converter (MP-150WSW, Biopac Systems) and into a computer at 1 kHz, and the myoelectric activity was recorded using the special software (AcqKnowledge 3.8.1, Biopac Systems). The intravesical pressure was measured using a pressure transducer (AP641G, NIHON KOHDEN) and a general purpose amplifier (DA100C, Biopac Systems). The halothane level was adjusted such that a stable myoelectric activity was obtained by extension at a pressure of 50 cmH2O, and then the drug was intravenously administered. Thereafter, hyperextension of bladder was repeated for at least 20 minutes.
The drug was dissolved in aqueous 5% xylitol-0.02% citric acid solution, and the administration volume was 0.5 mL/kg. The mean of the number of spikes during the twice hyperextension of bladder immediately before the drug administration was defined as the value before drug administration. Taking the value before the drug administration as 100%, the change in the number of spikes after administration of the drug was normalized. The mean of the change in the number of spikes by the consecutive three times hyperextension carried out immediately before or after 15-minutes time point from the drug administration was calculated, and the drug effect was analyzed by Williams test.

Assay [3] relates to male ddY mouse. The note with it: literature, Pain. Vol 50, 223-229 (1992); cited from earlier work.

For the molecule `O=C1c2ccccc2C(=O)N1[C@@H]1CC[C@@]2(O)[C@H]3Cc4ccc(O)c5c4[C@@]2(CCN3CC2CC2)[C@H]1O5` [Compound 10f, N-(17-cyclopropylmethyl-4,5α-epoxy-3,14-dihydroxy-morphinan-6β-yl)-phthalimide], in the assay on male ddY mouse [1], the ED50 – broadly, the dose that gives a 50% effect, or the effect in half of the subjects – amounted to 0.037 mg/kg. The “Rate of Inhibition of Myoelectric Activity (Number of Spikes) of External Oblique Abdominal Muscle (vs. before administration, %)” value in assay [2] (0.003 mg/kg) was found to be 5.9 ± 11.5%; in assay [2] (0.01 mg/kg) it was 42.4 ± 21.1 %; in assay [2] (0.03 mg/kg), 64.3 ± 17.2 %. For the same molecule, the “inhibition of the myoelectric activity (in words)” value in assay [2] (0.003-0.03 mg/kg) is “dose-dependently and significantly inhibited”. Besides, in assay [2] (inhibition of myoelectric activity), the minimum effective dose came to 0.01 mg/kg.

For `CN1CC[C@]23c4c5ccc(O)c4O[C@H]2[C@@H](O)C=C[C@H]3[C@H]1C5` [morphine], in the assay on male ddY mouse [3], the “effect on pain in PGF2α-induced allodynia model (in words)” value is listed as “ineffective”.
